Test results taken from ChEMBL document CHEMBL1201862, “PubChem BioAssay data set” (2004).
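48-hour exposure; five concentrations; linearly interpolated endpoints. GI50 = concentration required for 50% inhibition of growth.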 The source made the active and inactive calls. Rule as the data show it: active = GI50 up to about 1.1 µM and inactive = higher.

Columns and labels:
Test in all cases: NCI-60 cell line screen, 48 h
HCC 2998 = tested on: HCC 2998
U-251 = tested on: U-251
SW-620 = tested on: SW-620
LOX IMVI = tested on: LOX IMVI
SF-539 = tested on: SF-539
MDA-MB-435 = tested on: MDA-MB-435
HL-60 = tested on: HL-60
COLO 205 = tested on: COLO 205
DU-145 = tested on: DU-145
NCI-H226 = tested on: NCI-H226
OVCAR-8 = tested on: OVCAR-8
BT-549 = tested on: BT-549
SF-295 = tested on: SF-295
EKVX = tested on: EKVX
PC-3 = tested on: PC-3
CAKI-1 = tested on: CAKI-1
HOP-62 = tested on: HOP-62
KM12 = tested on: KM12
SK-OV-3 = tested on: SK-OV-3
Hs-578T = tested on: Hs-578T

Compound | GI50 (HCC 2998) | GI50 (U-251) | GI50 (SW-620) | GI50 (LOX IMVI) | GI50 (SF-539) | GI50 (MDA-MB-435) | GI50 (HL-60) | GI50 (COLO 205) | GI50 (DU-145) | GI50 (NCI-H226) | GI50 (OVCAR-8) | GI50 (BT-549) | GI50 (SF-295) | GI50 (EKVX) | GI50 (PC-3) | GI50 (CAKI-1) | GI50 (HOP-62) | GI50 (KM12) | GI50 (SK-OV-3) | GI50 (Hs-578T)
Cc1cccc(/C=N/NC(=S)N2CCCC2)n1 | 0.78 µM (active) | 0.366 µM (active) | 0.188 µM (active) | 0.267 µM (active) | 0.479 µM (active) | 0.493 µM (active) | 0.0559 µM (active) | 0.325 µM (active) | 0.373 µM (active) | 2.41 µM (inactive) | 0.324 µM (active) | 1.76 µM (inactive) | 0.266 µM (active) | 0.304 µM (active) | 0.346 µM (active) | 0.197 µM (active) | 0.209 µM (active) | – | – | –
CN1CC2CN(Cc3ccccc3)CCN2c2cccnc21 (centres undefined) | – | 42.8 µM (inactive) | 35.2 µM (inactive) | 20.9 µM (inactive) | 62.8 µM (inactive) | 30.5 µM (inactive) | 29 µM (inactive) | 36.6 µM (inactive) | – | 57.7 µM (inactive) | 48.2 µM (inactive) | 33.3 µM (inactive) | 89.5 µM (inactive) | 53 µM (inactive) | 45.9 µM (inactive) | 93.1 µM (inactive) | > 100 µM (inactive) | 23.9 µM (inactive) | > 100 µM (inactive) | 40.3 µM (inactive)
CC1C(c2ccc(F)cc2)c2cc3c(cc2OC1N1CCCC1)OCO3 (centres undefined) | 38.6 µM (inactive) | – | 47 µM (inactive) | 83.8 µM (inactive) | 30.4 µM (inactive) | 44.6 µM (inactive) | – | 49.5 µM (inactive) | 61.9 µM (inactive) | – | 55.1 µM (inactive) | – | 27.6 µM (inactive) | 34.1 µM (inactive) | 44.2 µM (inactive) | 16.7 µM (inactive) | 46.3 µM (inactive) | 42.5 µM (inactive) | – | 18 µM (inactive)
Cc1cccc2c1Oc1ncccc1C2NC(=O)CN(C)C (centres undefined) | > 10 µM (inactive) | > 10 µM (inactive) | > 10 µM (inactive) | > 10 µM (inactive) | > 10 µM (inactive) | > 10 µM (inactive) | > 10 µM (inactive) | – | – | > 10 µM (inactive) | > 10 µM (inactive) | > 10 µM (inactive) | > 10 µM (inactive) | > 10 µM (inactive) | > 10 µM (inactive) | – | – | > 10 µM (inactive) | > 10 µM (inactive) | –
CC(NC1=NCCO1)c1ccccc1Cl (centres undefined) | > 100 µM (inactive) | > 100 µM (inactive) | > 100 µM (inactive) | > 100 µM (inactive) | 27.2 µM (inactive) | > 100 µM (inactive) | > 100 µM (inactive) | > 100 µM (inactive) | > 100 µM (inactive) | 58.1 µM (inactive) | > 100 µM (inactive) | – | > 100 µM (inactive) | > 100 µM (inactive) | 91 µM (inactive) | > 100 µM (inactive) | > 100 µM (inactive) | > 100 µM (inactive) | > 100 µM (inactive) | > 100 µM (inactive)
O=P1(Oc2ccccc2)NCc2ncccc2O1 (centres undefined) | > 100 µM (inactive) | > 100 µM (inactive) | > 100 µM (inactive) | > 100 µM (inactive) | > 100 µM (inactive) | > 100 µM (inactive) | – | > 100 µM (inactive) | > 100 µM (inactive) | > 100 µM (inactive) | > 100 µM (inactive) | > 100 µM (inactive) | > 100 µM (inactive) | > 100 µM (inactive) | > 100 µM (inactive) | > 100 µM (inactive) | > 100 µM (inactive) | > 100 µM (inactive) | – | –
CCCN1C(=O)/C(=C\c2ccc(OC)c(OC)c2)S/C1=N\c1ccccc1 | > 100 µM (inactive) | 27.8 µM (inactive) | > 100 µM (inactive) | > 100 µM (inactive) | 24.7 µM (inactive) | > 100 µM (inactive) | > 100 µM (inactive) | > 100 µM (inactive) | – | > 100 µM (inactive) | > 100 µM (inactive) | 87.9 µM (inactive) | 24.2 µM (inactive) | 67.9 µM (inactive) | > 100 µM (inactive) | > 100 µM (inactive) | 17.6 µM (inactive) | > 100 µM (inactive) | 27.9 µM (inactive) | 44.4 µM (inactive)
CC1(C)CC(=O)c2c(N)n[nH]c2C1 | > 100 µM (inactive) | > 100 µM (inactive) | > 100 µM (inactive) | > 100 µM (inactive) | > 100 µM (inactive) | > 100 µM (inactive) | > 100 µM (inactive) | > 100 µM (inactive) | > 100 µM (inactive) | > 100 µM (inactive) | > 100 µM (inactive) | > 100 µM (inactive) | > 100 µM (inactive) | > 100 µM (inactive) | > 100 µM (inactive) | > 100 µM (inactive) | > 100 µM (inactive) | > 100 µM (inactive) | – | –
[N-]=[N+]=Nc1c(-c2ccccc2)c(Cl)nc2ccccc12 | 44.2 µM (inactive) | 48 µM (inactive) | 35.4 µM (inactive) | 20.6 µM (inactive) | 43.8 µM (inactive) | 38.3 µM (inactive) | 56.2 µM (inactive) | 20 µM (inactive) | – | 22.2 µM (inactive) | 58.2 µM (inactive) | 23.2 µM (inactive) | 22.8 µM (inactive) | 33 µM (inactive) | 26.2 µM (inactive) | 31.8 µM (inactive) | 34.1 µM (inactive) | 19.1 µM (inactive) | 86.3 µM (inactive) | 44.2 µM (inactive)
COc1ccc(C)cc1NC(=S)C#N | 44.6 µM (inactive) | > 100 µM (inactive) | > 100 µM (inactive) | > 100 µM (inactive) | 33.1 µM (inactive) | > 100 µM (inactive) | > 100 µM (inactive) | > 100 µM (inactive) | > 100 µM (inactive) | 27.5 µM (inactive) | 27.9 µM (inactive) | 35.2 µM (inactive) | 31.9 µM (inactive) | – | 26.4 µM (inactive) | > 100 µM (inactive) | 29.6 µM (inactive) | 36.2 µM (inactive) | 27.8 µM (inactive) | –
[N-]=[N+]=CC(=O)OC1CCOCC1 | > 100 µM (inactive) | > 100 µM (inactive) | > 100 µM (inactive) | > 100 µM (inactive) | – | > 100 µM (inactive) | > 100 µM (inactive) | > 100 µM (inactive) | > 100 µM (inactive) | > 100 µM (inactive) | – | > 100 µM (inactive) | > 100 µM (inactive) | > 100 µM (inactive) | > 100 µM (inactive) | > 100 µM (inactive) | > 100 µM (inactive) | > 100 µM (inactive) | > 100 µM (inactive) | –
CCOc1ccc(N2C(=O)NC3(c4ccccc4)N(C)C(=O)N(C)C23c2ccccc2)cc1 (centres undefined) | – | > 100 µM (inactive) | > 100 µM (inactive) | > 100 µM (inactive) | > 100 µM (inactive) | > 100 µM (inactive) | 75.2 µM (inactive) | > 100 µM (inactive) | > 100 µM (inactive) | 61 µM (inactive) | 61.1 µM (inactive) | 83.9 µM (inactive) | 97.3 µM (inactive) | > 100 µM (inactive) | 41 µM (inactive) | > 100 µM (inactive) | > 100 µM (inactive) | 55.3 µM (inactive) | > 100 µM (inactive) | –
CC1=NN(c2cccc(Cl)c2)C2(C1=Cc1ccc(N(C)C)cc1)C(Cl)C(=O)N2c1nc2ccccc2s1 (centres undefined) | 17.8 µM (inactive) | 53.7 µM (inactive) | 19.6 µM (inactive) | > 100 µM (inactive) | 49.1 µM (inactive) | 6.18 µM (inactive) | > 100 µM (inactive) | – | 97.5 µM (inactive) | > 100 µM (inactive) | 73.3 µM (inactive) | – | 67.1 µM (inactive) | > 100 µM (inactive) | > 100 µM (inactive) | 72.9 µM (inactive) | 17.8 µM (inactive) | 3.95 µM (inactive) | 34.4 µM (inactive) | 23.5 µM (inactive)
O=C(Nc1cc2c(=O)[nH]c3ccccc3c2oc1=O)c1cnccn1 | > 100 µM (inactive) | > 100 µM (inactive) | > 100 µM (inactive) | > 100 µM (inactive) | > 100 µM (inactive) | > 100 µM (inactive) | – | > 100 µM (inactive) | > 100 µM (inactive) | > 100 µM (inactive) | > 100 µM (inactive) | > 100 µM (inactive) | > 100 µM (inactive) | > 100 µM (inactive) | > 100 µM (inactive) | > 100 µM (inactive) | – | > 100 µM (inactive) | > 100 µM (inactive) | –
COc1ccc(-c2nc3cc(F)ccc3s2)cc1O | 2.57 µM (inactive) | 30.1 µM (inactive) | 87.9 µM (inactive) | 21.1 µM (inactive) | 38.5 µM (inactive) | 56.1 µM (inactive) | 32.6 µM (inactive) | 28.7 µM (inactive) | 38 µM (inactive) | 23.8 µM (inactive) | 26.5 µM (inactive) | 17.2 µM (inactive) | 22.5 µM (inactive) | 6.59 µM (inactive) | 34.7 µM (inactive) | 23.3 µM (inactive) | – | 12.2 µM (inactive) | 29.8 µM (inactive) | –
Oc1cc(-c2cccc(C(F)(F)F)c2)nc2cc3c(cc12)OCO3 | 3.44 µM (inactive) | 2.55 µM (inactive) | 2.21 µM (inactive) | – | 1.04 µM (active) | 0.935 µM (active) | 0.246 µM (active) | 8.93 µM (inactive) | – | – | 2.34 µM (inactive) | 1.24 µM (inactive) | – | 1.5 µM (inactive) | 0.365 µM (active) | 10.9 µM (inactive) | 1.83 µM (inactive) | 2.12 µM (inactive) | 2.26 µM (inactive) | 1.66 µM (inactive)
